# Measured values as given in patent publication US11053221B2, “Substituted pyrimidines for inhibiting embryonic leucine zipper kinase activity” (Arrien Pharmaceuticals LLC, priority 2018, dated 2021).
# Legend:
# FLT3 = biological target: T1, FLT3 (Homo sapiens, UniProt P36888); test: HotSpot kinase assay, FLT3; type: biochemical; conditions: HotSpot radiometric 33P ATP assay, 25° C., 120 min
# T1 construct: purchased Reaction Biology Corporation
# T1 sequence (P36888 27-993): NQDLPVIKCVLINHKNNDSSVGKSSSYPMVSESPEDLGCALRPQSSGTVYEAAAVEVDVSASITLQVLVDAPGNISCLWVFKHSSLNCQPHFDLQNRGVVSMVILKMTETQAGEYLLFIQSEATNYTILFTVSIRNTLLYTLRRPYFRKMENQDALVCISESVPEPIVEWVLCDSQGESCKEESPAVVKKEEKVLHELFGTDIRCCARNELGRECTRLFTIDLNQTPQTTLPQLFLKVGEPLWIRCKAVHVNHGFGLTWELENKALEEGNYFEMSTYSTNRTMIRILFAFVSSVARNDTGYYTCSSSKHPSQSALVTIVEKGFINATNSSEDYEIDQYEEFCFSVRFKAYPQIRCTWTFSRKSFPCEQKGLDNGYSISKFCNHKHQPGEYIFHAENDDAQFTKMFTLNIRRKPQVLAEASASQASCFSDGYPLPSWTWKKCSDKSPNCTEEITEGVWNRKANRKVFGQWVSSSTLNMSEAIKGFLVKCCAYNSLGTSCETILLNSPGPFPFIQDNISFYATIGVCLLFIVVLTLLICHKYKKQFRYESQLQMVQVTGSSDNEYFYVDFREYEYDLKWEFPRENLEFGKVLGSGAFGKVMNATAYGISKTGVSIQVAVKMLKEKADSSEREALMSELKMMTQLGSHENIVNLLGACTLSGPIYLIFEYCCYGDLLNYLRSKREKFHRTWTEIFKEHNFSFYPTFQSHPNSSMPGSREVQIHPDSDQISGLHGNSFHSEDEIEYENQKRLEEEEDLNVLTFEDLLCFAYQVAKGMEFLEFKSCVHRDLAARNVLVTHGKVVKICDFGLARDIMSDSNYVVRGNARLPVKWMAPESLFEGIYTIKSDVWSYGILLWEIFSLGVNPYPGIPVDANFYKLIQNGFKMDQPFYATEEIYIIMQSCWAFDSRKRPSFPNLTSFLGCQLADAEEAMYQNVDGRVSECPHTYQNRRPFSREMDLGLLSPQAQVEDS
# Protocol: (§1) In vitro profiling of the MELK, MELK (T460M) kinase panel was performed at Reaction Biology Corporation using the “HotSpot” assay platform. In vitro profiling of the FLT3, FLT3 mutant forms; FLT3 (D835Y), FLT3 (F594R595insR), FLT3 (F594R595insREY), FLT3 (ITD), FLT3 (ITD)-NPOS, FLT3 (ITD)-W51 and FLT3 (R595_E596insEY) kinase panel is performed in the same manner.
# (§2) Briefly, specific kinase/substrate pairs along with required cofactors were prepared in reaction buffer; 20 mM Hepes (pH 7.5), 10 mM MgCl2, 1 mM EGTA, 0.02% Brij35, 0.02 mg/mL BSA, 0.1 mM Na3VO4, 2 mM DTT, 1% DMSO. Compounds were delivered into the reaction, followed ˜20 min later by addition of a mixture of ATP (Sigma) and ^33P ATP (PerkinElmer) to a final concentration of […]. Reactions were carried out at 25° C. for 120 min, followed by spotting of the reactions onto P81 ion exchange filter paper (Whatman). Unbound phosphate was removed by extensive washing of filters in 0.75% phosphoric acid. […] IC50 values and curve fits were obtained using Prism (GraphPad Software).
# MELK = biological target: T2, MELK (Homo sapiens, UniProt Q14680); test: HotSpot kinase assay, MELK; type: biochemical; conditions: HotSpot radiometric 33P ATP assay, 25° C., 120 min
# T2 construct: purchased Reaction Biology Corporation
# Protocol: as §1, §2
# T2 sequence (Q14680 whole entry): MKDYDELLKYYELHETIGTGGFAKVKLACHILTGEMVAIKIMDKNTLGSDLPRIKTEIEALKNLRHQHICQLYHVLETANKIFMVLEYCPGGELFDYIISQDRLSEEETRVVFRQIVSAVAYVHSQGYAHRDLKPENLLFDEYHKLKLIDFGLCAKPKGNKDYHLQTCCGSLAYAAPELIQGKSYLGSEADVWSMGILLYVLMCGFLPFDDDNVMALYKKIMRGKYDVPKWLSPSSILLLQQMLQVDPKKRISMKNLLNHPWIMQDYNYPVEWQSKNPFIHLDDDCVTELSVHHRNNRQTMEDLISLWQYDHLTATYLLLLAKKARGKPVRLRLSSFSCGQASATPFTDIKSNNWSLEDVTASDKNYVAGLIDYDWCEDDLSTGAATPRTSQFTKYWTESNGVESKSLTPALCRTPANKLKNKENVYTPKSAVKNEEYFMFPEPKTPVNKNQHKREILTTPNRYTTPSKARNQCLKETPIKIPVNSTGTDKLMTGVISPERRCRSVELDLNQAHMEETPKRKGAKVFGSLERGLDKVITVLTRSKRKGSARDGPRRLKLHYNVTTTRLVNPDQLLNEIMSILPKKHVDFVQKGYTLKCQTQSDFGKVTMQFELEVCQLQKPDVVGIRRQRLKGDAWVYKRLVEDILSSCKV
Structure (SMILES),IC50 (FLT3),IC50 (MELK)
"Fc1ccccc1-n1cc(-c2ncnc(Cl)c2OCC2CCNCC2)cn1 [Compound I-27, 4-chloro-6-(1-(2-fluorophenyl)-1H-pyrazol-4-yl)-5-(piperidin-4-ylmethoxy)pyrim-idine]",< 200 nM,200 to 1000 nM
"N[C@H]1CC[C@@H](CNc2cncnc2-c2cnn(-c3ccccc3F)c2)CC1 [Compound I-11, N-(((1s,4s)-4-aminocyclohexyl)meth-yl)-4-(1-(2-fluorophenyl)-1H-pyrazol-4-yl)pyrimidin-5-amine]",200 to 1000 nM,> 1000 nM
"CC(Oc1cncnc1-c1cnn(-c2ccccc2F)c1)[C@H]1CC[C@@H](N)CC1 (stereo partly drawn) [Compound I-17, (1S,4s)-4-((R)-1-((4-(1-(2-fluorophenyl)-1H-pyrazol-4-yl)pyrimidin-5-yl)oxy)ethyl)cyclo-hexan-1-amine]",200 to 1000 nM,200 to 1000 nM
"N[C@H]1CC[C@@H](COc2cncnc2-c2cnn(-c3ccccc3F)c2)CC1 [Compound I-25, (1s,4s)-4-(((4-(1-(2-fluorophenyl)-1H-pyrazol-4-yl)pyrimidin-5-yl)oxy)methyl)cyclo-hexan-1-amine]",< 200 nM,< 200 nM
"N[C@@H]1CC[C@@H]1COc1cncnc1-c1cnn(-c2ccccc2F)c1 [Compound I-13, (1R,2S)-2-(((4-(1-(2-fluorophenyl)-1H-pyrazol-4-yl)pyrimidin-5-yl)oxy)methyl)cyclo-butan-1-amine]",> 1000 nM,> 1000 nM
"N[C@H]1CC[C@@H](COc2cncnc2-c2cnn(-c3ccc(O)c(F)c3)c2)CC1 [Compound I-21, 4-(4-(5-(((1s,4s)-4-aminocyclohexyl)meth-oxy)pyrimidin-4-yl)-1H-pyrazol-1-yl)-2-fluorophenol]",< 200 nM,< 200 nM
"N[C@H]1CC[C@H](COc2cncnc2-c2cnn(-c3ccccc3F)c2)CC1 [Compound I-26, (1r,4r)-4-(((4-(1-(2-fluorophenyl)-1H-pyrazol-4-yl)pyrimidin-5-yl)oxy)methyl)cyclo-hexan-1-amine]",< 200 nM,< 200 nM
"CC(C)N[C@H]1CC[C@@H](COc2cncnc2-c2cnn(-c3ccccc3F)c2)CC1 [Compound I-15, (1s,4s)-4-(((4-(1-(2-fluorophenyl)-1H-pyrazol-4-yl)pyrimidin-5-yl)oxy)methyl)-N-isopropylcyclohexan-1-amine]",< 200 nM,200 to 1000 nM
"CN(C)[C@@H]1CC[C@H](COc2cncnc2-c2cnn(-c3ccccc3F)c2)C1 [Compound I-7, (1R,3S)-3-(((4-(1-(2-fluorophenyl)-1H-pyrazol-4-yl)pyrimidin-5-yl)oxy)methyl)-N,N-dimethylcyclopentan-1-amine]",200 to 1000 nM,200 to 1000 nM
